This is an account of results in the METLIN SMRT retention time set (Domingo-Almenara et al. 2019).

Each structure is given as a SMILES string.

The nature of this series: gradient 5% acetonitrile 3 min, to 50% in 2 min, to 85% in 15 min, held 3 min, 100 µL/min. As to conditions: column: Zorbax Extend-C18 2.1 x 50 mm; eluents: water / acetonitrile, 0.1% formic acid. Summed up:
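Retention time was recorded from adduct peaks, which were picked computationally and each inspected manually. Pure standards ran in mixtures of ~100 molecules on HPLC coupled to a quadrupole time-of-flight mass spectrometer, in positive and negative ionization mode, through a Zorbax Extend-C18 column (2.1 × 50 mm, 1.8 μm) at 100 μL/min. Eluents were water and acetonitrile, each with 0.1% formic acid.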
In turn, `COc1ccc(CN2C=C(C(=O)OCc3noc(-c4ccc(OC)cc4)n3)C(C)=NS2(=O)=O)cc1` registered an RP-LC retention time of 1110 s. With `O=C(NCCn1nc(-n2cccn2)ccc1=O)c1ccc2nsnc2c1` the figure was 621 s; with `Cc1cccc(CNC(=O)CN2CCN(Cc3cccc(Cl)c3)C2=O)c1`, 847 s. With `O=C(c1ccc(SCCN2CCCCC2)nc1)N1CCN(c2ncccn2)CC1` the figure was 605 s. In turn, `Cc1nc(-c2ccccc2)cc2nn(CC(=O)NCc3ccc(F)cc3)c(=O)n12` had an RP-LC retention time of 559 s.

Consider `O=C(CN1C(=O)CCc2cc(Br)ccc21)Nc1ccc2c(c1)OCO2`, for which the RP-LC retention time came out at 792 s.

As for `Cn1nc(-c2nnc(-c3ccc(F)cc3)o2)c2c1CCN(S(=O)(=O)c1ccc3c(c1)CCCC3)C2`, the RP-LC retention time is 1090 s. As to `Cc1cc(C)cc(-n2ccn(Cc3nc(-c4ccc(Cl)cc4)no3)c(=O)c2=O)c1`, the RP-LC retention time is 960 s. To `CCCn1cc(C(=O)NCc2ccc(N(C)C)cc2)c2cccnc21` belongs 630 s; to `CCOc1ccccc1NC(=O)N1CCC(n2c(C(F)(F)F)nc3cccnc32)CC1`, 976 s. With `CCOC(=O)c1[nH]c(C)c(CCC(=O)N2CCCC(C(=O)NC(C)C)C2)c1C` (centres undefined) the figure was 723 s; with `Cc1ccc(S(=O)(=O)N2CCC(n3cnc4ccc(C)cc4c3=O)CC2)c(C)c1`, 988 s. To `CC(=O)Nc1ccc(CCc2nc3ccc(C(=O)NCc4ccc(C)o4)cc3[nH]2)cc1` belongs 606 s; to `CCc1noc(C2(NC(=O)c3cccc(F)c3)CCCCC2)n1`, 949 s.

`Cc1nc2cc(-c3noc(-c4ccc(C(F)(F)F)cc4)n3)ccc2o1` came in with an RP-LC retention time of 1210 s. To `Cc1nc(N2CCN(c3ccccc3F)CC2)nc2c1C(=O)CC(c1ccccc1O)C2` (centres undefined) belongs 1190 s; to `COc1ccc(C(=O)Nc2c(-c3ccc(F)cc3)nc3cc(C)ccn23)c(OC)c1`, 697 s; to `O=C(NCCC1CCN(C(=O)Nc2ccc(F)cc2F)CC1)c1ccoc1`, 726 s. As for `COC(=O)c1cc(Cl)ccc1NC(=O)COc1nc(C)nc2ccccc12`, the RP-LC retention time worked out at 897 s.

The compound `O=C(N1CCOCC1)C1(c2cc(-c3ccco3)on2)CC1` had an RP-LC retention time of 673 s. To `CC1CCC(NC(=O)C2CCCN(C(=O)c3cc(-c4ccncc4)n[nH]3)C2)CC1` (centres undefined) belongs 632 s; to `c1cc(CN2CCN(c3cnn4c(C5CC5)nnc4c3)CC2)cs1`, 558 s. With `Cc1ccc(F)cc1NC(=O)Cn1nc2nc(N3CCCC(C)C3)ccn2c1=O` (centres undefined) the figure was 804 s. To `CCOc1cccc(CNC(=O)c2cn3ccc(C)cc3n2)c1` belongs 671 s; to `CN(C)c1cccc(C(=O)N2CCCC2c2nc(-c3ccc(F)cc3)no2)c1` (centres undefined), 985 s. `Cc1oc(-c2[nH]ncc2C(=O)N(C)C)cc1S(=O)(=O)Nc1ccc(F)c(F)c1` had an RP-LC retention time of 890 s.

Compound `CCCCCNC(=O)CCc1nnc2c3cc(-c4ccc(C)c(C)c4)nn3ccn12` yielded an RP-LC retention time of 872 s. To `Cc1noc(CN2N=C(C(=O)N3CCC(C)CC3)S(=O)(=O)c3ccccc32)n1` belongs 826 s; to `CN1C(=O)c2cccn2CC1C(=O)Nc1ccc(F)cc1F` (centres undefined), 696 s. In the case of `O=C(Cc1cccs1)N1CCC(c2noc(-c3ccncc3)n2)C1` (centres undefined), the RP-LC retention time is 702 s. With `Cc1nc2c(ccc3nc(NC(=O)c4cc(=O)c5ccccc5o4)sc32)s1` the figure was 828 s; with `Cc1ccccc1CNC(=O)CN1CCN(Cc2ccc(F)cc2)C1=O`, 803 s.

Consider `O=C(NC1CCN(Cc2ccccc2)CC1)C1CCCN(c2nnc(-n3cccc3)s2)C1` (centres undefined), for which the RP-LC retention time came to 659 s.

Turning to `COc1ccc(N2C(=O)CSC2c2ccc(Cl)cc2)cc1` (centres undefined), the RP-LC retention time is 877 s. To `O=C1CC(c2noc(-c3ccccc3F)n2)CN1c1ccc(F)cc1` (centres undefined) belongs 916 s; to `Cc1cc(C)nc(N2CCN(C)CC2)n1`, 556 s. With `COc1ccccc1NC(=O)Cn1nc2c(N(C)C3CCCCC3)nccn2c1=O` the figure was 778 s; with `CCOC(=O)C1CCN(c2ncc(S(=O)(=O)c3ccccc3)c(N)n2)CC1`, 885 s. With `Cc1ccc(-c2nc(N3CCCCCC3)c3ccccc3n2)cc1` the figure was 833 s; with `O=C(Nc1nnc(-c2ccsc2)o1)c1ccc2nsnc2c1`, 698 s; with `O=C(NCCCN1CCCC1=O)c1csc(N2CCN(c3ccccc3)CC2)n1`, 781 s. Consider `COC[C@@H]1CN(S(=O)(=O)c2ccc(F)cc2)C[C@H]1c1ccccn1`, for which the RP-LC retention time amounted to 745 s. To `CCOC(=O)c1noc2nc(C)nc(Nc3cccc(C)c3)c12` belongs 1170 s. To `O=C(Nc1ccc(Oc2ccccc2)cc1)c1cccc([N+](=O)[O-])c1C(=O)O` belongs 788 s; to `c1ccc(OCc2nc(-c3cccc(-c4csc(C5CC5)n4)c3)no2)cc1`, 1330 s; to `Cn1cc(-c2cc3n(n2)CCCN3C(=O)CCC(=O)N2CCCCC2)c2ccccc21`, 753 s. With `Cn1nc(C2CCCN(C(=O)c3ccco3)C2)n(C2CCCC2)c1=O` (centres undefined) the figure was 701 s. As for `O=C(Cn1c2ccccc2c2ncn(Cc3nc(-c4ccccc4)no3)c(=O)c21)NC1CCCCC1`, the RP-LC retention time stood at 976 s. With `CCCN1CCN(C(=O)CN2C(=O)C(C)(C)c3cc(C)ccc32)CC1` the figure was 624 s; with `Cc1cc(CN2CC(F)(F)C[C@H]2c2nnc(-c3ccccc3)o2)n(C)n1`, 806 s. With `CCN1C(=O)COc2cc(-c3noc(C(=O)NCCc4ccc(S(N)(=O)=O)cc4)n3)ccc21`, the RP-LC retention time was found to be 732 s. To `CCn1cc(S(=O)(=O)N2CCO[C@@H](COc3ccccn3)[C@@H]2c2ccccc2)cn1` belongs 898 s; to `Cc1c(NC(=O)c2sc3cc(F)ccc3c2Cl)c(=O)n(-c2ccccc2)n1C`, 756 s.

Regarding `O=C(Nc1ccc2sccc2c1)c1ccc([N+](=O)[O-])s1`, the RP-LC retention time was determined as 924 s. With `CCN(CC)C(=O)c1cc(C)nc2c1c(=O)n(Cc1ccccc1C)c(=O)n2C` the figure was 938 s; with `CN(C)C(=O)c1ccc2c(c1)N(CC(=O)NC1CCCCCCC1)C(=O)CS2`, 769 s. To `COCCN1C(=O)c2cccn2CC1CNC(=O)c1ccnn1C` (centres undefined) belongs 626 s; to `O=C(Nc1ccc2c(c1)OCCO2)C(=O)c1cn(CC(=O)N2CCCCC2)c2ccccc12`, 1010 s; to `COc1ccc(NC(=O)COc2ccccc2)c2ccccc12`, 893 s.
